Assay results as given in US11744860B2, “Technology for efficient activation of NKT cells” (RIKEN, priority 2016, dated 2023).

What was measured:
Format in all cases: cell-based
human NKT cell line [1] = test: NKT cell activating action (IFN-γ production), co-culture of ligand-pulsed cells with human NKT cell line, ELISA; conditions: ligand 100 ng/mL; for IFN-γ production from NKT cells induced by ligand-pulsed CD14 positive cells: 48 hr pulse, 1×10^5 pulsed cells with 1×10^5 human NKT cells, 48 hr
Source text: For preparation of the cells obtained by culturing human CD14 positive cells (monocytes) immediately after separation using anti-CD14 antibody and human CD14 negative cells or human Elu-CD14 positive cells (monocytes) for 2 days with GM-CSF and NKT cell ligand RK-163 (respectively called “RK-163-pulsed human CD14 positive cell”, “RK-163-pulsed human CD14 negative cell”, “RK-163-pulsed human Elu-CD14 positive cell”), and the dendritic cells induced to differentiate in 2)-(2) by culturing for 6 days with addition of GM-CSF and IL-4 (called “RK-163-pulsed human dendritic cell”), RK-163 (bulk powder was dissolved in PBS added with DMSO and 0.5% Tween 20) was added to each cell to a final concentration of 100 ng/mL, and the cells were cultured at 37° C., 5% CO2 for 48 hr to produce “RK-163-pulsed cells”. After culturing, the recovered cells were centrifugation washed twice, and the number of viable cells after Trypan Blue staining was calculated by TC20™ Automated Cell Counter. RK-163-pulsed cells and human NKT cell line were respectively suspended in 10% fetal calf serum (Sigma, Lot No. 114K525)-added RMPI-1640 (Invitrogen) to 1×10^6/mL, each cell suspension was seeded at a cell concentration of 1×10^5/0.1 mL/well in a 96-well round-bottomed culture plate, and the cells were cultured at 37° C., 5% CO2 for 48 hr. After culturing, 200 μL of supernatant was recovered, and the produced and secreted IFN-γ was measured using a commercially available ELISA kit (BD Biosciences).
CD14 positive cells immediately after separation of anti-CD14 antibody-bound microbeads were separated, pulse-cultured in a medium containing NKT ligand RK-163 or other NKT cell ligand α-GalCer at 100 ng/mL and GM-CSF (53.3 ng/mL) for various times (0, 16, 48, 64 and 72 hr), and an influence on the activity of NKT cells to induce IFN-γ production was compared. As a result, IFN-γ production inducing activity was found from 16 hr after pulsing and high activity was found 48-72 hr later (FIG. 4, left). The recovery rate and survival rate at that time were highest at 48 hrs (FIG. 4, right). […]
Using RCAI-85 (100 ng/mL), RCAI-137 (100 ng/mL) instead of RK-163, CD14 positive cells (monocytes) isolated from human peripheral blood were pulsed for 48 hr to give each ligand-pulsed CD14 positive cell. 1×10^5 RK-163-pulsed CD14 positive cells or other ligand-pulsed CD14 positive cells were seeded in a 96 well round-bottomed plate, and cocultured with 1×10^5 human NKT cells for 48 hr in a 10% FBS-containing complete RPMI-1640 medium, and the concentration of IFN-γ in the culture medium was measured.

human NKT cell line [2] = test: NKT cell activating action (IFN-γ production) of RK-163-pulsed human CD14 positive cell lines; conditions: U937 cells, RK-163 100 ng/mL, presence or absence of GM-CSF, 2-48 hr
Description: Human CD14 positive cell line THP-1 cells and U937 cells were suspended in RPMI1640/10% FBS culture medium to 1-3×10^6 cells/ml, and seeded in a 24-well culture plate (Falcon) at a cell density of 1 mL/well. Simultaneously, RK-163 (bulk powder was dissolved in PBS added with DMSO and 0.5% Tween 20) was added to a final concentration 100 ng/mL, […] to give “RK-163-pulsed human CD14 positive cell line”.
iPS-CD14 positive cells were cultured for 8-48 hr in the presence of RK-163 in the same manner as for THP-1 and U937 to give “RK-163-pulsed human iPS-CD14 positive cell line”.
[…] After culturing, the recovered cells were washed twice by centrifugation, and the number of viable cells after Trypan Blue staining was calculated by TC20™ Automated Cell Counter. RK-163-pulsed cells and human NKT cell line were respectively suspended in 10% fetal bovine serum (Sigma, Lot No. 114K525)-added RMPI-1640 (Invitrogen) to 1×10^6/mL, each cell suspension was seeded at a cell concentration of 1×10^5/0.1 mL/well in a 96-well round-bottomed culture plate, and the cells were cultured at 37° C., 5% CO2 for 48 hr. After culturing, 200 μL of supernatant was recovered, and the produced and secreted IFN-γ was measured using a commercially available ELISA kit (BD Biosciences). […]

[3] = tested on: NCI H460 cells (human lung cancer cell line); test: Cytotoxic activity of NKT cells stimulated with pulsed cells against NCI H460 cells
Source text: Human NKT cells were stimulated by culturing for 8-10 days with the “RK-163-pulsed human CD14 positive cell” or “RK-163-pulsed human dendritic cell” produced in the same manner as above in a mixed medium of AIM-V (50%) and RPMI-1640 (45%) and containing FCS (5%) (lot suitable for proliferation of iPS cells), sodium pyruvate, NEAA, 2-ME, IL-2 (100 U/mL) (Imunace). The mixing ratio of NKT cells and RK-163-pulsed CD14 positive cells or RK-163-pulsed dendritic cells was set to 1:1.5-5. The obtained human NKT cells were cultured for 4 hr together with NCI H460 cells (human lung cancer cell line) in an FBS (10%)-containing complete RPMI-1640 medium on a 96 well round-bottomed plate and the cytotoxic activity against NCI H460 cells was examined. The number of the target cells (NCI H460 cells) was set to 1×10^4 cells/well and the effector:target ratio was set to 3:1 and 10:1.

Structure (SMILES) | IFN-γ production from NKT cells induced by ligand-pulsed CD14 positive cells (human NKT cell line [1]) | pulse time from which IFN-γ production inducing activity was found (human NKT cell line [2]) | cytotoxic activity induced on human NKT cells as compared to α-GalCer [3] | pulse time with high IFN-γ production inducing activity (human NKT cell line [1]; CD14 positive cells, GM-CSF 53.3 ng/mL) | pulse time from which IFN-γ production inducing activity was found (human NKT cell line [1]; CD14 positive cells, GM-CSF 53.3 ng/mL, times 0, 16, 48, 64, 72 hr)
CCCCCCCCCCCCCCCCCCCCCCCCCC(=O)N[C@@H](CO[C@H]1O[C@H](COCC)[C@H](O)[C@H](O)[C@H]1O)[C@H](O)[C@H](O)CCCCCCCCCCCCCC [RCAI-85] | strongly induce |  |  |  | 
CCCCCCCCCCCCCCCCCCCCCCCCCC(=O)N[C@@H](CO[C@H]1O[C@H](COC(=O)NO)[C@H](O)[C@H](O)[C@H]1O)[C@H](O)[C@H](O)CCCCCCCCCCCCCC [RCAI-137] | strongly induce |  |  |  | 
CCCCCCCCCCCCCCCCCCCCCCCCCC(=O)N[C@@H](CO[C@H]1O[C@H](COC(=O)NC)[C@H](O)[C@H](O)[C@H]1O)[C@H](O)[C@H](O)CCCCCCCCCCCCCC [RK-163] |  | ≥ 2 h | stronger | 48 to 72 h | ≥ 16 h
